{"source": "PubChem BioAssay AID1963973", "about": "(Molecular Pharmacology Branch, DTP, NCI, 2024)", "system": "883617-216-R-J1-PDC tumor spheroids, viability", "assay": "Anticancer human tumor 883617-216-R-J1-PDC patient-derived bladder carcinoma cell line growth inhibition [PI3K]", "conditions": "spheroids with HUVEC and MSC; for pIC50: curve of first compound; for viability, T/C: stronger effect = lower value", "summary_of_the_method": "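We assembled tumor spheroids that included a stromal compartment of HUVEC and MSCs, then exposed them to targeted agents alone and together with PI3K pathway inhibitors. Concentration series descended by half-log from clinically achievable Cmax levels. Viability served as the endpoint.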", "key": {"[1]": {"conditions": "second compound 0.0316 µM, first compound 0.0316 µM"}, "[2]": {"conditions": "second compound 0.0316 µM, first compound 0.1 µM"}, "[3]": {"conditions": "second compound 0.0316 µM, first compound 0.316 µM"}, "[4]": {"conditions": "second compound 0.0316 µM, first compound 1 µM"}, "[5]": {"conditions": "second compound 0.0316 µM, first compound 3.16 µM"}, "[6]": {"conditions": "second compound 0.0316 µM, first compound 10 µM"}, "[7]": {"conditions": "second compound 0.1 µM, first compound 0.0316 µM"}, "[8]": {"conditions": "second compound 0.1 µM, first compound 0.1 µM"}, "[9]": {"conditions": "second compound 0.1 µM, first compound 0.316 µM"}, "[10]": {"conditions": "second compound 0.1 µM, first compound 1 µM"}, "[11]": {"conditions": "second compound 0.1 µM, first compound 3.16 µM"}, "[12]": {"conditions": "second compound 0.1 µM, first compound 10 µM"}, "[13]": {"conditions": "second compound 0.316 µM, first compound 0.0316 µM"}, "[14]": {"conditions": "second compound 0.316 µM, first compound 0.1 µM"}, "[15]": {"conditions": "second compound 0.316 µM, first compound 0.316 µM"}, "[16]": {"conditions": "second compound 0.316 µM, first compound 1 µM"}, "[17]": {"conditions": "second compound 0.316 µM, first compound 3.16 µM"}, "[18]": {"conditions": "second compound 0.316 µM, first compound 10 µM"}, "[19]": {"conditions": "second compound 1 µM, first compound 0.0316 µM"}, "[20]": {"conditions": "second compound 1 µM, first compound 0.1 µM"}, "[21]": {"conditions": "second compound 1 µM, first compound 0.316 µM"}, "[22]": {"conditions": "second compound 1 µM, first compound 1 µM"}, "[23]": {"conditions": "second compound 1 µM, first compound 3.16 µM"}, "[24]": {"conditions": "second compound 1 µM, first compound 10 µM"}}, "note": "pIC50: −log10 of the molar value.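 Note: spheroids exposed to agents for 7 days before the viability read.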"}
{"smiles": "CC(C)NCC(C(=O)N1CCN(c2ncnc3c2C(C)CC3O)CC1)c1ccc(Cl)cc1", "note": "(stereo unspecified) + CC(Nc1ccc2c(c1)OCCn1cc(N3C(=O)OCC3C(F)F)nc1-2)C(N)=O", "values": [{"measurement": "pIC50", "setting": "second compound 0.00316 µM", "result": 6.34}, {"measurement": "pIC50", "setting": "second compound 0.01 µM", "result": 6.28}, {"measurement": "pIC50", "setting": "second compound 0.0316 µM", "result": 6.60}, {"measurement": "pIC50", "setting": "second compound 0.1 µM", "result": 7.12}, {"measurement": "pIC50", "setting": "second compound 0.316 µM", "result": "> 7.50"}, {"measurement": "pIC50", "setting": "second compound 1 µM", "result": "> 7.50"}, {"measurement": "viability, T/C", "setting": "second compound 0.00316 µM, first compound 0.0316 µM", "result": 83.7, "unit": "%"}, {"measurement": "viability, T/C", "setting": "second compound 0.00316 µM, first compound 0.1 µM", "result": 81.7, "unit": "%"}, {"measurement": "viability, T/C", "setting": "second compound 0.00316 µM, first compound 0.316 µM", "result": 57.4, "unit": "%"}, {"measurement": "viability, T/C", "setting": "second compound 0.00316 µM, first compound 1 µM", "result": 30.3, "unit": "%"}, {"measurement": "viability, T/C", "setting": "second compound 0.00316 µM, first compound 3.16 µM", "result": 15.1, "unit": "%"}, {"measurement": "viability, T/C", "setting": "second compound 0.00316 µM, first compound 10 µM", "result": 6.47, "unit": "%"}, {"measurement": "viability, T/C", "setting": "second compound 0.01 µM, first compound 0.0316 µM", "result": 74.1, "unit": "%"}, {"measurement": "viability, T/C", "setting": "second compound 0.01 µM, first compound 0.1 µM", "result": 79.9, "unit": "%"}, {"measurement": "viability, T/C", "setting": "second compound 0.01 µM, first compound 0.316 µM", "result": 64, "unit": "%"}, {"measurement": "viability, T/C", "setting": "second compound 0.01 µM, first compound 1 µM", "result": 30.3, "unit": "%"}, {"measurement": "viability, T/C", "setting": "second compound 0.01 µM, first compound 3.16 µM", "result": 14.8, "unit": "%"}, {"measurement": "viability, T/C", "setting": "second compound 0.01 µM, first compound 10 µM", "result": 5.88, "unit": "%"}, {"measurement": "viability, T/C", "setting": "[1]", "result": 73.8, "unit": "%"}, {"measurement": "viability, T/C", "setting": "[2]", "result": 62, "unit": "%"}, {"measurement": "viability, T/C", "setting": "[3]", "result": 48.1, "unit": "%"}, {"measurement": "viability, T/C", "setting": "[4]", "result": 27.1, "unit": "%"}, {"measurement": "viability, T/C", "setting": "[5]", "result": 12.8, "unit": "%"}, {"measurement": "viability, T/C", "setting": "[6]", "result": 6.19, "unit": "%"}, {"measurement": "viability, T/C", "setting": "[7]", "result": 87.1, "unit": "%"}, {"measurement": "viability, T/C", "setting": "[8]", "result": 32.9, "unit": "%"}, {"measurement": "viability, T/C", "setting": "[9]", "result": 27.9, "unit": "%"}, {"measurement": "viability, T/C", "setting": "[10]", "result": 19.2, "unit": "%"}, {"measurement": "viability, T/C", "setting": "[11]", "result": 10.1, "unit": "%"}, {"measurement": "viability, T/C", "setting": "[12]", "result": 5.7, "unit": "%"}, {"measurement": "viability, T/C", "setting": "[13]", "result": 27.5, "unit": "%"}, {"measurement": "viability, T/C", "setting": "[14]", "result": 26.4, "unit": "%"}, {"measurement": "viability, T/C", "setting": "[15]", "result": 20.7, "unit": "%"}, {"measurement": "viability, T/C", "setting": "[16]", "result": 13.2, "unit": "%"}, {"measurement": "viability, T/C", "setting": "[17]", "result": 7.79, "unit": "%"}, {"measurement": "viability, T/C", "setting": "[18]", "result": 4.52, "unit": "%"}, {"measurement": "viability, T/C", "setting": "[19]", "result": 14.9, "unit": "%"}, {"measurement": "viability, T/C", "setting": "[20]", "result": 21.9, "unit": "%"}, {"measurement": "viability, T/C", "setting": "[21]", "result": 15.7, "unit": "%"}, {"measurement": "viability, T/C", "setting": "[22]", "result": 10.1, "unit": "%"}, {"measurement": "viability, T/C", "setting": "[23]", "result": 10.1, "unit": "%"}, {"measurement": "viability, T/C", "setting": "[24]", "result": 3.3, "unit": "%"}]}
{"smiles": "CCCS(=O)(=O)Nc1ccc(F)c(C(=O)c2c[nH]c3ncc(-c4ccc(Cl)cc4)cc23)c1F", "note": "+ CC(Nc1ncnc2nc[nH]c12)c1cc2cccc(Cl)c2c(=O)n1-c1ccccc1", "values": [{"measurement": "pIC50", "setting": "second compound 0.0316 µM", "result": 5.38}, {"measurement": "pIC50", "setting": "second compound 0.1 µM", "result": 5.33}, {"measurement": "pIC50", "setting": "second compound 0.316 µM", "result": 5.34}, {"measurement": "pIC50", "setting": "second compound 1 µM", "result": 5.41}, {"measurement": "pIC50", "setting": "second compound 3.16 µM", "result": 5.44}, {"measurement": "pIC50", "setting": "second compound 10 µM", "result": 5.77}, {"measurement": "viability, T/C", "setting": "[1]", "result": 94.8, "unit": "%"}, {"measurement": "viability, T/C", "setting": "[2]", "result": 92.3, "unit": "%"}, {"measurement": "viability, T/C", "setting": "[3]", "result": 97.1, "unit": "%"}, {"measurement": "viability, T/C", "setting": "[4]", "result": 102, "unit": "%"}, {"measurement": "viability, T/C", "setting": "[5]", "result": 63.4, "unit": "%"}, {"measurement": "viability, T/C", "setting": "[6]", "result": 9.37, "unit": "%"}, {"measurement": "viability, T/C", "setting": "[7]", "result": 85, "unit": "%"}, {"measurement": "viability, T/C", "setting": "[8]", "result": 91.8, "unit": "%"}, {"measurement": "viability, T/C", "setting": "[9]", "result": 114, "unit": "%"}, {"measurement": "viability, T/C", "setting": "[10]", "result": 85.1, "unit": "%"}, {"measurement": "viability, T/C", "setting": "[11]", "result": 70.5, "unit": "%"}, {"measurement": "viability, T/C", "setting": "[12]", "result": 10.7, "unit": "%"}, {"measurement": "viability, T/C", "setting": "[13]", "result": 91.8, "unit": "%"}, {"measurement": "viability, T/C", "setting": "[14]", "result": 91.1, "unit": "%"}, {"measurement": "viability, T/C", "setting": "[15]", "result": 95, "unit": "%"}, {"measurement": "viability, T/C", "setting": "[16]", "result": 97.1, "unit": "%"}, {"measurement": "viability, T/C", "setting": "[17]", "result": 67.7, "unit": "%"}, {"measurement": "viability, T/C", "setting": "[18]", "result": 11.3, "unit": "%"}, {"measurement": "viability, T/C", "setting": "[19]", "result": 99.9, "unit": "%"}, {"measurement": "viability, T/C", "setting": "[20]", "result": 89, "unit": "%"}, {"measurement": "viability, T/C", "setting": "[21]", "result": 87.9, "unit": "%"}, {"measurement": "viability, T/C", "setting": "[22]", "result": 72.4, "unit": "%"}, {"measurement": "viability, T/C", "setting": "[23]", "result": 65.1, "unit": "%"}, {"measurement": "viability, T/C", "setting": "[24]", "result": 9.68, "unit": "%"}, {"measurement": "viability, T/C", "setting": "second compound 3.16 µM, first compound 0.0316 µM", "result": 75.3, "unit": "%"}, {"measurement": "viability, T/C", "setting": "second compound 3.16 µM, first compound 0.1 µM", "result": 75.7, "unit": "%"}, {"measurement": "viability, T/C", "setting": "second compound 3.16 µM, first compound 0.316 µM", "result": 72.1, "unit": "%"}, {"measurement": "viability, T/C", "setting": "second compound 3.16 µM, first compound 1 µM", "result": 71.5, "unit": "%"}, {"measurement": "viability, T/C", "setting": "second compound 3.16 µM, first compound 3.16 µM", "result": 55.2, "unit": "%"}, {"measurement": "viability, T/C", "setting": "second compound 3.16 µM, first compound 10 µM", "result": 10.6, "unit": "%"}, {"measurement": "viability, T/C", "setting": "second compound 10 µM, first compound 0.0316 µM", "result": 52.9, "unit": "%"}, {"measurement": "viability, T/C", "setting": "second compound 10 µM, first compound 0.1 µM", "result": 57.4, "unit": "%"}, {"measurement": "viability, T/C", "setting": "second compound 10 µM, first compound 0.316 µM", "result": 55.3, "unit": "%"}, {"measurement": "viability, T/C", "setting": "second compound 10 µM, first compound 1 µM", "result": 66.5, "unit": "%"}, {"measurement": "viability, T/C", "setting": "second compound 10 µM, first compound 3.16 µM", "result": 40.5, "unit": "%"}, {"measurement": "viability, T/C", "setting": "second compound 10 µM, first compound 10 µM", "result": 11.8, "unit": "%"}]}
{"smiles": "Cc1nc(NC(=O)N2CCCC2C(N)=O)sc1-c1ccnc(C(C)(C)C(F)(F)F)c1", "note": "(stereo unspecified)", "values": [{"measurement": "viability, T/C", "setting": "compound 0.0316 µM", "result": "92.1% [middle of 8 runs]"}, {"measurement": "viability, T/C", "setting": "compound 0.1 µM", "result": "74.7% [middle of 8 runs]"}, {"measurement": "viability, T/C", "setting": "compound 0.316 µM", "result": "49.1% [middle of 8 runs]"}, {"measurement": "viability, T/C", "setting": "compound 1 µM", "result": "28.3% [middle of 8 runs]"}, {"measurement": "viability, T/C", "setting": "compound 3.16 µM", "result": "12.5% [middle of 8 runs]"}, {"measurement": "viability, T/C", "setting": "compound 10 µM", "result": "7.52% [middle of 8 runs]"}, {"measurement": "IC50", "setting": "compound alone, run of 04/24/2023", "result": "316 nM [middle of 8 runs]"}]}
